This assay has as its system squid giant synapse. Briefly: Electron microscopy of presynaptic terminal (synaptic vesicles at active zones). Format: cell-based, squid (Loligo paelli). The following applies: treated squid following h-tau42 injection. An excerpt:
Immediately following the electrophysiological study the ganglia were removed from the recording chamber, fixed by immersion in glutaraldehyde, postfixed in osmium tetroxide, stained in block with uranium acetate, dehydrated and embedded in resin (Embed 812, EM Sciences). Ultrathin sections were collected on Pioloform (Ted Pella, Redding, Calif.) and carbon-coated single sloth grids, and contrasted with uranyl acetate and lead citrate. Morphometry and quantitative analysis of the synaptic vesicles were performed with the in house program developed with LabVIEW (National Instruments, Ostin Tex.). […] Vesicle density at the synaptic active zones was determined as the number of vesicles per μm^2, on an average area of 0.8 μm^2 per active zone. CCV density was determined within the limits of the presynaptic terminal on an average terminal area of 3.3 μm^2.
At the end of the electrophysiological recordings the stellate ganglion was immediately removed from the recording chamber and fixed by immersion in glutaraldehyde. […] Morphometry and quantitative analysis of the synaptic vesicles were performed with the image J software (NIH, EUA). […] Synaptic vesicle density and the number of CCV at the synaptic active zones were determined as the number of vesicles per μm2. […]

SMILES strings stand for the structures.

For `O=C(O)/C=C\C(=O)O.OC1CN(CCCOCCc2ccc3sccc3c2)C1` [T817MA], the “reduction in number of docked vesicles following h-tau42 injection” value is reported as “not seen”.
